Reference: BigSolDB 2.1

Details: in water

Row | SMILES | solubility (mole fraction) (283.15 K) | solubility (mole fraction) (288.15 K) | solubility (mole fraction) (293.15 K) | solubility (mole fraction) (298.15 K) | solubility (mole fraction) (303.15 K) | solubility (mole fraction) (308.15 K) | solubility (mole fraction) (313.15 K) | solubility (mole fraction) (318.15 K) | solubility (mole fraction) (323.15 K) | solubility (mole fraction) (328.15 K) | solubility (mole fraction) (333.15 K)
1 | O=S(=O)([O-])c1ccc2ccc(S(=O)(=O)[O-])cc2c1.[Na+].[Na+] | 0.0128 | 0.014 | 0.0159 | 0.0189 | 0.0224 | 0.0268 | 0.0323 | 0.0383 | 0.0473 | 0.0584 | 0.075
2 | O=S(=O)([O-])c1ccc2cc(S(=O)(=O)[O-])ccc2c1.[Na+].[Na+] | 0.00323 | 0.00343 | 0.00366 | 0.00402 | 0.00437 | 0.00478 | 0.00523 | 0.00563 | 0.00611 | 0.00657 | 0.0072
